Results: patent EP1541166B1, “Preventing cell death using segments of neural thread proteins” (NYMOX CORPORATION, priority 2001, dated 2007)

System: live tissue containing AD7C-NTP
Test: Prevention/inhibition of AD7C-NTP-induced necrosis of live tissue by Harlil sequences injected with AD7C-NTP into rats, histopathology
Format: in vivo
Settings: injected together with AD7C-NTP 100 ng/mL-10 µg/mL, 24 hours, compared to control samples injected with AD7C-NTP alone
Method: AD7C-NTP was obtained as described above in Example 1.
The Harlil sequences NTP-1, NTP-3, and NTP-7 prepared in accordance with Example 2 above were used in this example.
Recombinant AD7C-NTP samples 100 ng/mL-10 µg/mL were incubated at room temperature for 5 minutes to one hour with the aforementioned Harlil sequences and then injected into rats as described in Example 1.
Alternatively, a solution of the Harlil sequence was made up in concentrations ranging from 1 microgram/mL to 1 milligram/mL. Solutions containing the recombinant AD7C-NTP also were made up as described above, without the addition of the Harlil sequence. The animals were injected with about 100 microliters of the AD7C-NTP solution, and with about 100 microliters of the Harlil solution.
The 24 individual foci of infiltration were excised, fixed in 10% formalin, embedded in paraffin, and stained and examined by standard histopathological methods.
Similar groups of control rats were injected with (1) AD7C-NTP alone as described in Example 1, (2) bovine serum albumin in saline, (3) normal human serum, and (4) physiological saline, and examined and sacrificed as above, with the excised foci of injection treated as above.

Substance: L H A R L C L A N F C G R N R V (LHARLCLANFCGRNRV) [NTP-1]
- reduction in tissue necrosis: over 95%
